In patent US9808455B2:

Tested on: extra cellular levels of acetylcholine in the prefrontal cortex
Assay: extracellular acetylcholine levels in the prefrontal cortex, preclinical studies in rats
Format: in vivo
Description: At a mechanistic level, pharmacodynamic interactions between an acetylcholinesterase inhibitor and a 5HT6 receptor antagonist are feasible. […] Although the underlying mechanism is still unknown, it is likely due to increases in the release of acetylcholine from cholinergic neurons, On the other hand, donepezil increases the extracellular levels of acetylcholine by inhibiting the acetylcholinesterase to reduce the degradation of acetylcholine.

**Q.** How did the “extra cellular levels of acetylcholine in the prefrontal cortex” value turn out when `O=S(=O)(c1ccccc1)c1cnc2c(N3CCNCC3)cccc2c1` was run?
**A.** The value was “small increase”.
